Laboratory results: US20230357249A1, “ANDROGEN RECEPTOR PROTEIN DEGRADERS WITH A TRICYCLIC CEREBLON LIGAND” (THE REGENTS OF THE UNIVERSITY OF MICHIGAN, priority 2020, published 2023)

Molecular target: T1, AR protein (Homo sapiens, UniProt P10275)
T1 construct: endogenous in cells; host or cells: VCaP
T1 sequence (P10275 1-920): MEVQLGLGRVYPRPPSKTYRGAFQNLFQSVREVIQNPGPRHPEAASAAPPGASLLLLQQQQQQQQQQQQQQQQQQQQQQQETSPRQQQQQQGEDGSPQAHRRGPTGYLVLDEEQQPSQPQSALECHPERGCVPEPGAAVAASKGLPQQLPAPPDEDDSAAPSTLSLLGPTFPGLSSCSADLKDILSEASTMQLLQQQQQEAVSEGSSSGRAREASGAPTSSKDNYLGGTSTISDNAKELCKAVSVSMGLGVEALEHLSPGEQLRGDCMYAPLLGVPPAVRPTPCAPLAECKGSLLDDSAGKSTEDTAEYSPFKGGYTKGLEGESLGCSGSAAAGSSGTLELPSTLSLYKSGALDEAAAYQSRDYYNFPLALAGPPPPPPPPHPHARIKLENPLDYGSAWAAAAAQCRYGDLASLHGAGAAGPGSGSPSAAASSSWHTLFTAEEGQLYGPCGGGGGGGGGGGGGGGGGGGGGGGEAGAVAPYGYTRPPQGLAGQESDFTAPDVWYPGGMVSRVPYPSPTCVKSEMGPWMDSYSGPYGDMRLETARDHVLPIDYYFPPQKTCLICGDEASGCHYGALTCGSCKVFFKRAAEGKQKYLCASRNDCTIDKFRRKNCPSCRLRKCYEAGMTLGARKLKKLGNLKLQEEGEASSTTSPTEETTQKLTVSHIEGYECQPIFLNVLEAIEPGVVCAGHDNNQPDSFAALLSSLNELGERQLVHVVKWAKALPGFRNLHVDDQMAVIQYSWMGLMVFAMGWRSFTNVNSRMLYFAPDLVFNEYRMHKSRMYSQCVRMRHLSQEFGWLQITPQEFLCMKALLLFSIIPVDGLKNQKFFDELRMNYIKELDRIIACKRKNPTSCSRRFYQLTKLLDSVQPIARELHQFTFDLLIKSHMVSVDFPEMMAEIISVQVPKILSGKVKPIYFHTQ
Assay: AR protein degradation in VCaP cells, Western blotting
Type: cell-based
Design: key to AR protein degradation VCap 10 nM / AR protein degradation VCap 100 nM: A: >90% degradation (24 hr treatment); B: >50% degradation but <90% (24 hr treatment); C: >10% degradation but <50% (24 hr treatment); D: No significant degradation (24 hr treatment)
Details: 24 hr treatment; for percent AR protein degradation at 0.01 µM / AR protein degradation VCap 10 nM: 10 nM; for percent AR protein degradation at 0.1 µM / AR protein degradation VCap 100 nM: 100 nM
Protocol: The appropriate cell line, e.g., prostate cancer LNCaP, Vcap, or 22RV1 cell line, was treated with Compounds of the Disclosure as indicated. The treated cells were lysed with RIPA buffer. The AR level in the cell lysates was examined by western blotting and a specific AR antibody (ab194196, Abcam, Cambridge, MA 02139) with concentration of 1:20,000. GAPDH was used as a loading control.
Bands were quantified with ImageJ software. The relative numbers of each band obtained from normalization with its corresponding GAPDH level were compared with Prism 8 software. The DC50 values were produced from Prism 8, and the DC90 values were calculated with an equation=Bottom + (Top-Bottom)/(1+10^((LogEC50-X)*HillSlope) based on DC50 and Hillslope values.
The amount of AR protein degradation in VCap and MDA-MB-453 cells caused by representative Compounds of the Disclosure at the concentrations indicated is presented in Table 4, FIG. 1, and FIG. 2.

percent AR protein degradation at 0.1 µM	AR protein degradation VCap 10 nM	AR protein degradation VCap 100 nM	SMILES	percent AR protein degradation at 0.01 µM
10 to 50%			CC1(C)[C@H](Oc2ccc(C#N)c(Cl)c2)C(C)(C)[C@H]1N1Cc2cc(C(=O)N3CCC(N4Cc5cc6c(cc5C4)C(=O)N(C4CCC(=O)NC4=O)C6=O)CC3)ccc2C1=O (stereo partly drawn) [compound 5]	10 to 50%
> 90%			N#Cc1ccc(O[C@H]2CC[C@H](NC(=O)c3ccc4c(c3)CCN(C(=O)CN3Cc5cc6c(cc5C3)C(=O)N(C3CCC(=O)NC3=O)C6=O)C4)CC2)cc1Cl (stereo partly drawn) [compound 24]	> 90%
> 90%			N#Cc1ccc(O[C@H]2CC[C@H](NC(=O)c3ccc4c(c3)CCN(CC(=O)N3CCc5cc6c(cc5C3)C(=O)N(C3CCC(=O)NC3=O)C6=O)CC4)CC2)cc1Cl (stereo partly drawn) [compound 29]	50 to 90%
10 to 50%	D		N#Cc1ccc(OC2CCC3(CC2)CC(NC(=O)c2ccc(N4CCC(CN5Cc6cc7c(cc6C5)C(=O)N(C5CCC(=O)NC5=O)C7=O)CC4)cc2)C3)cc1Cl (stereo not drawn) [compound 125]	
> 90%			C[C@H]1C[C@@H](NC(=O)c2ccc(N3CCC(N4Cc5cc6c(cc5C4)C(=O)N(C4CCC(=O)NC4=O)C6=O)CC3)cc2)CC[C@@H]1Oc1ccc(C#N)c(Cl)c1 (stereo partly drawn) [compound 16]	> 90%
> 90%	D		N#Cc1ccc(O[C@H]2CC[C@H](N3Cc4cc(C(=O)N5CCC(CN6Cc7cc8c(cc7C6)C(=O)N(C6CCC(=O)NC6=O)C8=O)CC5)ccc4C3=O)CC2)cc1Cl (stereo partly drawn) [compound 174]	
> 90%			CC1(C)[C@H](Oc2ccc(C#N)c(Cl)c2)C(C)(C)[C@H]1N1Cc2cc(C(=O)N3CCC(CCN4Cc5cc6c(cc5C4)C(=O)N(C4CCC(=O)NC4=O)C6=O)CC3)ccc2C1=O (stereo partly drawn) [compound 7]	50 to 90%
> 90%			N#Cc1ccc(O[C@H]2CC[C@H](NC(=O)c3ccc(N4CC(CN5Cc6cc7c(cc6C5)C(=O)N(C5CCC(=O)NC5=O)C7=O)C4)cc3)CC2)cc1Cl (stereo partly drawn) [compound 21]	50 to 90%
50 to 90%			N#Cc1ccc(O[C@H]2CC[C@H](NC(=O)c3ccc4c(c3)CCN(CC(=O)N3CCc5cc6c(cc5C3)C(=O)N(C3CCC(=O)NC3=O)C6=O)C4)CC2)cc1Cl (stereo partly drawn) [compound 28]	50 to 90%
10 to 50%			CC1(C)[C@H](Oc2ccc(C#N)c(Cl)c2)C(C)(C)[C@H]1N1Cc2cc(C(=O)N3CCC(CN4Cc5cc6c(cc5C4)C(=O)N(C4CCC(=O)NC4=O)C6=O)CC3)ccc2C1=O (stereo partly drawn) [compound 6]	10 to 50%
	D	D	N#Cc1ccc(OC2CCN(C(=O)Nc3ccc(C(=O)N4CCC(CN5Cc6cc7c(cc6C5)C(=O)N(C5CCC(=O)NC5=O)C7=O)CC4)cc3)CC2)cc1Cl (stereo not drawn) [compound 132]	
> 90%			N#Cc1ccc(O[C@H]2CC[C@H](NC(=O)c3ccc4c(c3)CCN(C(=O)CN3Cc5cc6c(cc5C3)C(=O)N(C3CCC(=O)NC3=O)C6=O)CC4)CC2)cc1Cl (stereo partly drawn) [compound 25]	> 90%
	D	D	N#Cc1ccc(O[C@H]2CC[C@H](Oc3ccc(C(=O)N4CCC(N5Cc6cc7c(cc6C5)C(=O)N(C5CCC(=O)NC5=O)C7=O)CC4)cc3)CC2)cc1Cl (stereo partly drawn) [compound 11]	
	D	D	N#Cc1ccc(O[C@H]2CC[C@H](Oc3ccc(C(=O)N4CCC(CN5Cc6cc7c(cc6C5)C(=O)N(C5CCC(=O)NC5=O)C7=O)CC4)cc3)CC2)cc1Cl (stereo partly drawn) [compound 12]	
	D	D	C[C@@H]1CN(C(=O)c2ccc(N3CCC(CN4Cc5cc6c(cc5C4)C(=O)N(C4CCC(=O)NC4=O)C6=O)CC3)cc2)C[C@H]1Oc1ccc(C#N)c(Cl)c1 (stereo partly drawn) [compound 122]	
> 90%			C[C@H]1C[C@H](NC(=O)c2ccc(N3CCC(CN4Cc5cc6c(cc5C4)C(=O)N(C4CCC(=O)NC4=O)C6=O)CC3)cc2)CC[C@H]1Oc1ccc(C#N)c(Cl)c1 (stereo partly drawn) [compound 14]	> 90%

SMILES	percent AR protein degradation at 0.1 µM	AR protein degradation VCap 10 nM	AR protein degradation VCap 100 nM	percent AR protein degradation at 0.01 µM
C[C@H]1CCN(c2ccc(C(=O)N3CCC(N4Cc5cc6c(cc5C4)C(=O)N(C4CCC(=O)NC4=O)C6=O)CC3)cc2)CCN1c1ccc(C#N)c(Cl)c1 (stereo partly drawn) [compound 119]	50 to 90%			50 to 90%
CN(c1ccc(C#N)c(Cl)c1)[C@H]1CC[C@H](NC(=O)c2ccc(CN3CCC(N4Cc5cc6c(cc5C4)C(=O)N(C4CCC(=O)NC4=O)C6=O)CC3)cc2)CC1 (stereo partly drawn) [compound 278]	> 90%			> 90%
CN(c1ccc(C#N)c(Cl)c1)[C@H]1CC[C@H](NC(=O)c2ccc(N3CCC(CN4Cc5cc6c(cc5C4)C(=O)N(C4CCC(=O)NC4=O)C6=O)CC3)nc2)CC1 (stereo partly drawn) [compound 323]	> 90%			> 90%
CN(c1ccc(C#N)c(Cl)c1)[C@H]1CC[C@H](NC(=O)c2ccc(N3CCC(CN4Cc5cc6c(cc5C4)C(=O)N(C4CCC(=O)NC4=O)C6=O)CC3)nn2)CC1 (stereo partly drawn) [compound 325]	> 90%			> 90%
CN(c1ccc(C#N)c(Cl)c1)[C@H]1CC[C@H](NC(=O)c2ccc(N3CCN(CC(=O)N4Cc5cc6c(cc5C4)C(=O)N(C4CCC(=O)NC4=O)C6)CC3)cc2)CC1 (stereo partly drawn) [compound 327, N-((1r,4r)-4-((3-Chloro-4-Cyanophenyl)(Methyl)Amino)Cyclohexyl)-4-(4-(2-(6-(2,6-Dioxopiperidin-3-Yl)-5-Oxo-3,5,6,7-Tetrahydropyrrolo[3,4-F]Isoindol-2(1h)-Yl)-2-Oxoethyl)Piperazin-1-Yl)Benzamide]	> 90%			> 90%
C[C@H]1CCN(c2ccc(C(=O)N3CCC(CN4Cc5cc6c(cc5C4)C(=O)N(C4CCC(=O)NC4=O)C6=O)CC3)cc2)CCN1c1ccc(C#N)c(Cl)c1 (stereo partly drawn) [compound 120]	50 to 90%			50 to 90%
CN(c1ccc(C#N)c(Cl)c1)[C@H]1CC[C@H](NC(=O)c2ccc(CN3CCC(C(=O)N4Cc5cc6c(cc5C4)C(=O)N(C4CCC(=O)NC4=O)C6)CC3)cc2)CC1 (stereo partly drawn) [compound 326]	> 90%			> 90%
CN(c1ccc(C#N)c(Cl)c1)[C@H]1CC[C@H](NC(=O)c2ccc([C@H]3CC[C@H](CN4Cc5cc6c(cc5C4)C(=O)N(C4CCC(=O)CC4=O)C6=O)CC3)cc2)CC1 (stereo partly drawn) [compound 280]	> 90%			> 90%
CN(c1ccc(C#N)c(Cl)c1)[C@H]1CC[C@H](NC(=O)c2ccc(N3CCC(CN4Cc5cc6c(cc5C4)C(=O)N(C4CCC(=O)NC4=O)C6=O)CC3)cc2)CC1 (stereo partly drawn) [compound 20, N-((1r,4r)-4-((3-chloro-4-cyanophenyl)(methyl)amino)cyclohexyl)-4-(4-((6-(2,6-dioxopiperidin-3-yl)-5,7-dioxo-3,5,6,7-tetrahydropyrrolo [3,4-f]isoindol-2(1H)-yl)methyl)piperidin-1-yl)benzamide]	> 90%			> 90%
N#Cc1ccc(OC2CCN(C(=O)Oc3ccc(C(=O)N4CCC(CN5Cc6cc7c(cc6C5)C(=O)N(C5CCC(=O)NC5=O)C7=O)CC4)cc3)CC2)cc1Cl (stereo not drawn) [compound 131]	10 to 50%	D		
N#Cc1ccc(N[C@H]2CC[C@H](NC(=O)c3ccc(N4CCC(N5Cc6cc7c(cc6C5)C(=O)N(C5CCC(=O)NC5=O)C7=O)CC4)cc3)CC2)cc1Cl (stereo partly drawn) [compound 17]	> 90%			> 90%
